Assay results published in patent publication US5407918A, “16-membered macrolide derivatives and process for producing the same” (Meiji Seika Kaisha, Ltd., priority 1992, dated 1995).
Converted amounts (≈) assume the structure as drawn. “Also recorded” adds a separate entry of the source.

What was measured:
[1] = mice; EP-A-560,147; cited from earlier work
[2] = test system: some bacteria belonging to the genus Streptococcus or Branhamella; settings: cited from earlier work
esterase = settings: EP-A-560,147 derivatives; cited from earlier work
B. catarrhalis W-0500 = assay: MIC, agar plate dilution method; type: cell-based; settings: Moraxella catarrhalis, W0500, 37° C., 20 hours, read-out: Antimicrobial activity (MIC)
How it was run: (§1)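 Agar plate dilution on Sensitivity disk agar with 5% horse blood; 5 μl inoculum of about 10^6 CFU/ml, Branhamella precultured on blood agar. MIC read after 20 hours at 37° C.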

B. catarrhalis W-0506 = assay: MIC, agar plate dilution method; type: cell-based; settings: Moraxella catarrhalis, W0506, 37° C., 20 hours, read-out: Antimicrobial activity (MIC)
How it was run: as §1

E. coli NIHJ JC-2 = assay: MIC, agar plate dilution method; type: cell-based; settings: Escherichia coli, NIHJJC2, 20 h, read-out: Antimicrobial activity (MIC)
How it was run: as §1

E. faecalis W-73 = assay: MIC, agar plate dilution method; type: cell-based; settings: Enterococcus faecalis, W73; E. faecalis W-73; 37° C., 20 hours; read-out: Antimicrobial activity (MIC)
How it was run: as §1

H. influenzae 9334 = assay: MIC, agar plate dilution method; type: cell-based; settings: Haemophilus influenzae; H. influenzae 9334; 37° C., 20 hours; read-out: Antimicrobial activity (MIC)
How it was run: as §1

K. pneumoniae PC1602 = assay: MIC, agar plate dilution method; type: cell-based; settings: Klebsiella pneumoniae, 37° C., 20 hours, read-out: Antimicrobial activity (MIC)
How it was run: as §1

M. luteus ATCC9341 = assay: MIC, agar plate dilution method; type: cell-based; settings: Micrococcus luteus; M. luteus ATCC9341; 37° C., 20 hours; read-out: Antimicrobial activity (MIC)
How it was run: as §1

M. pneumoniae FH-P24 = assay: MIC, agar plate dilution method; type: cell-based; settings: Mycoplasmoides pneumoniae, FHP24, 20 h, read-out: Antimicrobial activity (MIC)
How it was run: (§2)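 MIC is the value read after 20 hours at 37° C on compound-containing Sensitivity disk agar supplemented with 5% horse blood. Each plate receives a 5 μl spot of cell suspension near 10^6 CFU/ml, prepared from broth seed cultures or, for Branhamella, blood agar cultures.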

M. pneumoniae FH = assay: MIC, agar plate dilution method; type: cell-based; settings: Mycoplasmoides pneumoniae, 20 h, read-out: Antimicrobial activity (MIC)
How it was run: as §1

M. pneumoniae Mac = assay: MIC, agar plate dilution method; type: cell-based; settings: Mycoplasmoides pneumoniae, 20 h, read-out: Antimicrobial activity (MIC)
How it was run: as §1

M. pneumoniae Numata = assay: MIC, agar plate dilution method; type: cell-based; settings: Mycoplasmoides pneumoniae, 20 h, read-out: Antimicrobial activity (MIC)
How it was run: as §1

S. Pneumoniae Type 1 = assay: MIC, agar plate dilution method; type: cell-based; settings: Streptococcus pneumoniae; S. Pneumoniae Type 1; 37° C., 20 hours; read-out: Antimicrobial activity (MIC)
How it was run: as §1

S. Pyogenes Cook = assay: MIC, agar plate dilution method; type: cell-based; settings: Streptococcus pyogenes, 37° C., 20 hours, read-out: Antimicrobial activity (MIC)
How it was run: as §1

S. aureus 209P JC-1 = assay: MIC, agar plate dilution method; type: cell-based; settings: Staphylococcus aureus; S. aureus 209P JC-1; 37° C., 20 hours; read-out: Antimicrobial activity (MIC)
How it was run: as §1

S. aureus M126 = assay: MIC, agar plate dilution method; type: cell-based; settings: Staphylococcus aureus; S. aureus M126; 37° C., 20 hours; read-out: Antimicrobial activity (MIC)
How it was run: as §1

S. aureus M133 = assay: MIC, agar plate dilution method; type: cell-based; settings: Staphylococcus aureus, 37° C., 20 hours, read-out: Antimicrobial activity (MIC)
How it was run: as §1

S. aureus MS15009/pMS98 = assay: MIC, agar plate dilution method; type: cell-based; settings: Staphylococcus aureus, MS15009/PMS98, 20 h, read-out: Antimicrobial activity (MIC)
How it was run: as §2

S. aureus MS15009/pMS99 = assay: MIC, agar plate dilution method; type: cell-based; settings: Staphylococcus aureus, MS15009/PMS99, 20 h, read-out: Antimicrobial activity (MIC)
How it was run: as §2

S. aureus MS15026 = assay: MIC, agar plate dilution method; type: cell-based; settings: Staphylococcus aureus, 37° C., 20 hours, read-out: Antimicrobial activity (MIC)
How it was run: as §1

S. aureus MS15027 = assay: MIC, agar plate dilution method; type: cell-based; settings: Staphylococcus aureus, 37° C., 20 hours, read-out: Antimicrobial activity (MIC)
How it was run: as §1

S. epidermidis ATCC14990 = assay: MIC, agar plate dilution method; type: cell-based; settings: Staphylococcus epidermidis, 37° C., 20 hours, read-out: Antimicrobial activity (MIC)
How it was run: as §1

S. pneumoniae IP692 = assay: MIC, agar plate dilution method; type: cell-based; settings: Streptococcus pneumoniae; S. pneumoniae IP692; 37° C., 20 hours; read-out: Antimicrobial activity (MIC)
How it was run: as §1

[3] = test system: Gram-positive bacteria and Mycoplasma; assay: antimicrobial activity in vitro (summary in words); type: cell-based; settings: from Table 1
How it was run: as §1

Mycoplasma = assay: anti-Mycoplasma activity (summary in words); type: cell-based
Protocol: Antimicrobial activities of the compounds of the present invention were determined by measuring minimum inhibitory concentration (MIC). Minimum inhibitory concentration was determined by the agar plate dilution method in the following manner.
Test strains were subjected to seed culture using Sensitivity test broth (STB, Nissui Pharmaceutical) except that the strains belonging to the genus Streptococcus, Branhamella and Haemophilus were cultured on blood agar plate. A 5 μl portion of cell suspension of the test strains having about 10^6 CFU/ml was inoculated into Sensitivity disk agar (SDA, Nissui Pharmaceutical) supplemented with 5% horse blood and incubated at 37° C. for 20 hours. Then, MIC was measured. For comparison, MDM and leucomycin A7 (LM-A7) was also tested.

[4] = concentration in serum after oral administration to mice, bioassay; type: in vivo, mice (Jcl:ICR)
Protocol: The compound (3) was mixed with a 0.2% solution of carboxymethylcellulose to give a concentration of 4 mg/ml and a 1 ml portion of the resulting emulsion was orally administered to 4-week-old male Jcl:ICR mice. Blood was collected from armpit of the mice 30, 60, 120, 240 and 360 minutes after the administration of the test compound (n=2). The collected blood was allowed to stand at room temperature for about 2 hours and centrifuged for 20 minutes with a centrifuge (KUBOTA KS-5000P) to obtain serum. To the serum was added an equivalent volume of 50% CH3 CN-50 mM phosphate (1:1 by volume) buffer (pH 7.0). The resulting mixture served as a serum sample. The concentration of the test compound in the serum sample was measured by the following bioassay method.
One hundred […] of the serum sample was poured into a hole made on a test plate containing 40 ml of MRAPJ medium (6 g/l peptone, 3 g/l yeast extract, 1.5 g/l meat extract, 1 g/l glucose and 15 g/l agar, pH 6.5) supplemented with a solution of M. Iuteus ATCC9341 (1%) and incubated at 32° C. for 18 hours and MIC was measured based on the calibration curve. MOM, MDM and RKM were also tested for comparison. […] Thus a long-pending problem of "low concentration in serum" of 16-membered macrolide antibiotics has been solved. […] Thus this compound is considered as a macrolide derivative showing new pharmacokinetics.
Further, a pharmacokinetics test on the compound (12) of the present invention is carried out in the same manner as described above. Namely, 200 mg/kg of the compound (12) is orally administered to mice and the concentration of this compound in the serum is determined by a bioassay method with the use of M. luteus as a test strain. […] The disadvantage of 16-membered ring macrolide antibiotics, which has been pointed out for a long time, has been thus overcome.

[5] = recovery in urine after oral administration to mice, bioassay; type: in vivo
Protocol: Subsequently, 200 mg/kg of the compound (3) was orally administered to three mice in the same manner as described above.
The three mice were put in a metabolic cage MM type (Sugiyamagen Company, Tokyo, Japan) and urine was collected 4 and 24 hours after the administration of the test compound. The collected urine was filtered through a filter having a pore size of 0.45 μm (Millipore) and was mixed with an equivalent volume of 50% CH3CN-50 mM phosphate (1:1 by volume) buffer (pH 6.5) to serve as a urine sample. The bioassay was carried out in the same manner as described above to determine the concentration of the test compound in the urine sample. The recovering in the urine was calculated according to the following equation. [formula]

metabolism in plasma = type: in vitro ADME, rat; settings: no free hydroxyl group in the neutral sugar moiety formed
Protocol: Each test compound and 50 μl of a methanol solution (10,000 γ) were added to 950 μl of thawed rat plasma and the resulting mixture was incubated at 37° C. for 24 hours. After completion of the incubation, a 20 μl portion of the mixture was added to 980 μl of 0.05M phosphate buffer (pH 7.6). A 20 μl portion of the sample solution was used to measure antimicrobial activity against M. luteus. Separately, the calibration curve was prepared by using a methanol solution containing each test compound. The starting activity of each compound in the plasma was referred to as 100%.

## CCC(=O)O[C@@H]1CC(=O)O[C@H](C)C/C=C/C=C/C(=O)[C@H](C)C[C@H](CC=O)[C@H](O[C@@H]2O[C@H](C)[C@@H](O[C@H]3C[C@@](C)(OC)[C@@H](OCCC(C)C)[C@H](C)O3)[C@H](N(C)C)[C@H]2O)[C@H]1OC [4"-O-depropionyl-4"-O-isoamyl-3"-O-methylmidecamycin A3]
[1]
  maximum concentration in serum compared with marketed 16-membered macrolide antibiotics: clearly improved
  recovery in urine compared with marketed 16-membered macrolide antibiotics: clearly improved
[2]
  antimicrobial activity compared with MOM: enhanced antimicrobial activity
esterase
  attack of the mycarose moiety by esterase: scarcely attacked by esterase

## CCC(=O)O[C@@H]1CC(=O)O[C@H](C)C/C=C/C=C/[C@H](O)[C@H](C)C[C@H](CC=O)[C@H](O[C@@H]2O[C@H](C)[C@@H](O[C@H]3C[C@@](C)(OC)[C@@H](OCCC(C)C)[C@H](C)O3)[C@H](N(C)C)[C@H]2O)[C@H]1OC [(3), 4"-O-depropionyl-4"-O-isoamyl-3"-O-methylmidecamycin A1]
B. catarrhalis W-0500
  MIC: 0.78 µg/mL (≈ 0.926 µM)
B. catarrhalis W-0506
  MIC: 1.56 µg/mL (≈ 1.85 µM)
E. coli NIHJ JC-2
  MIC: > 100 µg/mL
E. faecalis W-73
  MIC: 3.13 µg/mL (≈ 3.72 µM)
H. influenzae 9334
  MIC: 6.25 µg/mL (≈ 7.42 µM)
K. pneumoniae PC1602
  MIC: > 100 µg/mL
M. luteus ATCC9341
  MIC: 0.05 µg/mL (≈ 0.0594 µM)
M. pneumoniae FH-P24
  MIC: 0.025 µg/mL (≈ 0.0297 µM)
M. pneumoniae FH
  MIC: 1.56 µg/mL (≈ 1.85 µM)
M. pneumoniae Mac
  MIC: 0.05 µg/mL (≈ 0.0594 µM)
M. pneumoniae Numata
  MIC: 0.025 µg/mL (≈ 0.0297 µM)
S. Pneumoniae Type 1
  MIC: 0.2 µg/mL (≈ 0.238 µM)
S. Pyogenes Cook
  MIC: 0.1 µg/mL (≈ 0.119 µM)
S. aureus 209P JC-1
  MIC: 0.2 µg/mL (≈ 0.238 µM)
S. aureus M126
  MIC: > 100 µg/mL
S. aureus M133
  MIC: 0.78 µg/mL (≈ 0.926 µM)
S. aureus MS15009/pMS98
  MIC: 0.78 µg/mL (≈ 0.926 µM)
S. aureus MS15009/pMS99
  MIC: > 100 µg/mL
S. aureus MS15026
  MIC: > 100 µg/mL
S. aureus MS15027
  MIC: 0.78 µg/mL (≈ 0.926 µM)
S. epidermidis ATCC14990
  MIC: 1.56 µg/mL (≈ 1.85 µM)
S. pneumoniae IP692
  MIC: 0.1 µg/mL (≈ 0.119 µM)
[3]
  antimicrobial activities compared with MDM: comparable to, or even exceeding, that of MDM
  antimicrobial activities on Gram-positive bacteria and Mycoplasma: strong antimicrobial activities
Mycoplasma
  anti-Mycoplasma activity: practically effective anti-Mycoplasma activity
[4]
  pharmacokinetics in mice (in words): excellent pharmacokinetics
[4]; mouse, serum, 200 mg/kg, M. luteus bioassay, read-out: maximum concentration in the serum
  Cmax: 11300 ng/mL
[4]; versus clarythromycin (CAM) or other 16-membered macrolides
  maximum concentration in the serum, comparison in words: comparable to that of clarythromycin (CAM); also recorded: considered the highest one among 16-membered macrolide compounds having a free hydroxyl group at the 9-position
[5]
  stability in the living mouse body (sustaining the antimicrobial activity): highly stable
[5]; 200 mg/kg oral
  recovery in the urine compared with CAM: slightly lower than that of CAM
[5]; mouse, 200 mg/kg oral (compound (3)), urine 4 and 24 hours
  dose excreted at 24 h: 20%
Metabolism in plasma
  extent of metabolism: hardly metabolized
M. luteus
  degree of loss of the antimicrobial activity in the plasma compared with MOM: lower than that of MOM
